Assay results: patent US10363229B2, “Methods and compositions for the treatment of cancer” (priority 2009, dated 2019)

Assays:
[1] = system: B-cells from healthy volunteers; assay: Apoptosis of normal B-cells by Flow Cytometry; assay type: cell-based, human; conditions: 10% methyl sulfone, 20 hours
Description: Blood was drawn from healthy volunteers and white blood cells (e.g., lymphocytes, neutrophils) were enriched using Ficoll-Plaque. Cells were incubated in Petri dishes containing MEM with 7% fetal calf serum in a CO2 (5%) incubator at 37° C.; Methyl sulfone was present at concentrations of 0, 3, 6, or 10%. After 20 hours, cells were incubated with antibodies specific to T-lymphocytes (CD3 and CD4 T-cells), B-lymphocytes (B-cells) and neutrophils, and the percent of apoptotic cells was determined by Flow Cytometry. This is a technique that identifies specific cell types (e.g., CD3 T-cells, CD4 T-cells, B-cells, neutrophils) within a mixed population of blood cells, and then determines whether the cells are alive or apoptotic.
(§1) After 20 hours, cells were incubated with fluorescent antibodies to identify T-cells, B-cells and neutrophils, and then processed by Flow Cytometry (FIG. 15).

[2] = system: CEM leukemic lymphocytes; assay: Apoptosis of leukemic lymphocytes by Flow Cytometry; assay type: cell-based, human
Description: CEM leukemic lymphocytes were also incubated in the presence or absence of 10% methyl sulfone.
as §1

[3] = system: melanoma cells; assay: Cell wounding / wound healing; assay type: cell-based, mouse; conditions: 2% methyl sulfone
Description: Cells were cultured to approximately 90% confluence in 35 mm tissue culture plates. Methyl sulfone (2%) was added to half the plates and 48 hours later cells were wounded with a sterile plastic 1000 μl pipette tip. Cells were washed two times with medium to remove cell debris and incubated at 37° C. over night in RMPI medium +/−2% methyl sulfone. After 72 hours, wound edges were photographed and recorded with a Nikon TE300 inverted microscope (Nikon) equipped with a 10×0.25 NA Plan Achromat objective lens. Time-series (5 min long) of phase contrast images were acquired at a video rate (1 frame/3s) with a Watec-902B CCD video camera (Watec Corp., Japan) via stream acquisition option of Metamorph image acquisition and analysis software (Universal Imaging Corp., Downington, Pa.). During the recordings, cells were kept at 37° C. and 10 mM Hepes. Time series and photographs of cells +/−2% methyl sulfone were obtained every 24 hours for up to 120 hrs.
We tested whether melanoma cells treated with 2% methyl sulfone would function properly in the process of wound healing. As described in herein, control melanoma cells and cells treated with 2% methyl sulfone were grown to confluence. Scraping a layer of confluent cells with a plastic pipette tip formed wounds. Live cell video microscopy was used to monitor migration of cells into the wound.

[4] = system: CEM cells, leukemic T-cell lymphocytes; assay: Apoptosis of leukemic lymphocytes, FITC-annexinV/propidium iodide microscopy; assay type: cell-based, human; conditions: for apoptotic leukemic lymphocytes: 20 hours
Description: Cloudman S-91 mouse melanoma cells (sub-clone M-3, CCL 53.1; American Type Culture Collection, Rockville, Md.) were grown in RMPI medium supplemented with 10% fetal bovine serum (Invitrogen, Inc) and 5% penicillin-streptomycin (Invitrogen, Inc). Mouse breast cancer cells (66Cl-1; American Type Culture Collection, Rockville, Md.) that are estrogen-receptor negative were grown in DMEM medium supplemented with 10% fetal bovine serum (Invitrogen, Inc) and 5% penicillin/streptomycin (Invitrogen, Inc). Human T-cell leukemic lymphocytes (CEM; American Type Culture Collection, Rockville, Md.) were grown in MEM medium supplemented with 7% fetal calf serum. Cultures were passaged twice a week.
CEM cells, leukemic T-cell lymphocytes obtained from a child with acute lymphocytic leukemia, were maintained in Petri dishes in MEM (minimal essential medium) with 7% fetal calf serum in a 5% CO2 incubator at 37° C. For experiments, methyl sulfone was added to the medium at concentrations from 0-6.0%. In control cells, no methyl sulfone was added. Cells (2×10^6 per ml) were incubated for 20 hrs in the presence or absence of methyl sulfone, and then assayed for apoptosis using FITC-annexinV/propidium iodide microscopy. Methyl sulfone was also compared to the anti-microtubule drug, vinblastine. Vinblastine (VNB) and its derivative, vincristine, are standard treatments for acute lymphocytic leukemia, as well as other cancers. We used the concentration of VNB that is found in the blood of subjects being treated with this drug (10^−7 M) (6,7).

[5] = system: melanoma cells; assay: Soft agar assay for colony formation; assay type: cell-based, mouse; conditions: 2% methyl sulfone; control hundreds of colonies
Description: Cells were plated on 8-35 mm plates that contained base agar with and without 2% methyl sulfone. To make base agar, 1% agar (DNA grade; Difco Bacto Agar; Becton Dickenson and Company, Sparks, Md.), was mixed in water at room temperature, melted in a microwave, and cooled to 40° C. before using. For drug plates, 1% agar was combined (1:1) with 4% methyl sulfone in 2×RPMI medium with sodium bicarbonate supplemented with 10% FBS and 5% penicillin/streptomycin. For control plates, 1% agar was combined (1:1) with 2×RMPI medium. Agar +/−2% methyl sulfone was added to appropriate 35 mm tissue culture plates and stored overnight at 4° C. The next day top agar and cells were placed on top of the base agar. Top agar was made with 0.66% agar in water. The agar was melted in a microwave, cooled, and stored at 40° C. 2×RPMI medium and 4% methyl sulfone was also stored at 40° C. Cells were trypsinized and counted for a final concentration of 5×10^3 cells/plate. Cell counts were adjusted to 2×10^5 cells/ml and 0.05 ml of the cell suspension was added to 15 ml centrifuge tubes (2 each). Base agar plates were removed from 4° C. and allowed to warm to room temperature for approximately 30 minutes prior to plating. […] Colonies were photographed and counted with a dissecting microscope. […]

[6] = 20° C.; cited from earlier work

## methyl sulfone
[1]
  effect on B-cells: unharmed
[2]; 10% methyl sulfone, 20 hours
  CEM leukemic lymphocytes killed: 92%
[2]; summary in the description, concentration not given
  leukemic cells induced into apoptosis: more than 90%
[3]
  behaviour when the wound was covered: stopped migrating and once again became contact inhibited
  rate of migration into the wound area: slower rate than control cells
[4]; 4% methyl sulfone
  apoptotic leukemic lymphocytes: 74%
[4]; 6% methyl sulfone
  apoptotic leukemic lymphocytes: 88%
[4]; comparison with 10^−7 M vinblastine
  effectiveness against leukemic lymphocytes compared with vinblastine: more effective than vinblastine
[5]
  colony formation on soft agar (anchorage-independent growth): no colony formation
[6]
  approximate water solubility: ~150 mg/mL
